For series [1], the system named is CVB3 Nancy. Kind of series: Cytoprotection assay (MTT) in Vero cells infected with CVB3 Nancy. The format is cell-based, Coxsackievirus B3. Conditions: for EC50: Enterovirus B, Vero cells infected with CVB3 Nancy at m.o.i. 0.001, 72 h, MTT, read-out: EC50 (50% cytoprotective concentration); for SI (selectivity index, ratio CC50/IC50): cytoprotection assay, CC50 72 h / EC50. The procedure: (§1) Vero cells were seeded in 96-well plates in 24 h before the assay. On the assay day, the cells were washed with saline and tested compounds in appropriate concentrations (300–3 μg/mL) in MEM without FBS were added to cells. No compounds were added to virus control wells. The plates were incubated for 1 h at 37 °C at 5% CO2. The cells were then infected with CVB3 Nancy (m.o.i range of 1–0.001) and incubated for 72 h at 37 °C at 5% CO2. No virus was added to the cytotoxicity control wells. Cell viability was then assessed using an MTT test with the following procedure. The cells were washed with saline, and a solution of 3-(4,5-dimethylthiazolyl-2) 2,5-diphenyltetrazolium bromide (ICN Biochemicals Inc., Aurora, OH, USA) ([…]) in MEM was added to the wells (100 µL per well). After 2 h of incubation at 37 °C in 5% CO2, the supernatant from wells was discarded, and the formazan residue was dissolved in DMSO (100 µL per well). The optical density of cells was then measured on a Multiskan multifunctional reader (Thermo Fisher Scientific, Shanghai, China) at a wavelength of 540 nm.
The cytoprotective activity of compounds was considered to be their ability to increase the values of OD compared to control wells (using only a virus, without drugs). Based on the results obtained, the values of IC50, i.e., the concentration of compounds that result in 50% cells protection were calculated for m.o.i. 0.001 using GraphPad Prism 6.01 software.

Series [2] in a line: Cytotoxicity assay (MTT) in Vero cells. The settings on record: African green monkey; for CC50 at 72 h: 72 h incubation with the compound only; for CC50 at 24 h: 24 h incubation with the compound only. The class given is cell-based. The procedure:
as §1
(§2) The microtetrazolium test (MTT) was used to study the cytotoxicity of the compounds. The permissive cell line Vero was seeded in 96-well plates in Eagles minimal essential medium (MEM) supplemented with 10% FBS. After 24 h, the media were removed, and the wells were washed with saline. Compounds were dissolved in DMSO, and a series of two-fold dilutions of each compound in MEM without FBS were prepared and added to the cells in triplicates. […] The MTT was then performed as described above. Next, the optical density of cells was measured on a Multiskan multifunctional reader (Thermo Fisher Scientific, Shanghai, China) at a wavelength of 540 nm and plotted against the concentration of the compounds to generate the dose–response curve. The 50% cytotoxic dose (CC50) of each compound (i.e., the compound concentration that causes the death of 50% of cells in a culture, or decreases the optical density twice, as compared to the control wells) was calculated using a four-parameter logistic nonlinear regression model (GraphPad Prism 6.01).

For series [3], the system named is CVB3 Nancy. Kind of series: Thermostability assay (capsid binding, heat inactivation of virus). The settings on record: pre-incubation 30 min at 37 °C, thermal gradient 37-55 °C for 2 min. Details: species or system Coxsackievirus B3. The procedure:
CVB3 Nancy was pre-incubated with the compounds tested or an equal volume of MEM (virus control) for 30 min at +37 °C in sterile thin-walled 200 μL PCR-tubes (7 tubes per each treatment condition) in BioRad CFX PCR-machine. The thermal gradient of 37–55 °C for 2 min was then applied, followed by rapid cooling to 4 °C. Subsequently, the infectious virus load at each thermal condition for each compound tested was quantified by end-point dilution assay.

The subject of series [4] is Coxsackievirus B3 (Nancy). Kind of series: Viral yield reduction assay in Vero cells. The class given is cell-based. The settings on record: for IC50: Enterovirus B, B3 / CVB3, viral yield reduction, Vero cells, CVB3 Nancy at m.o.i. 0.01, 24 h, read-out: IC50 (50% virus-inhibiting concentration); for SI (selectivity index, ratio CC50/IC50): viral yield reduction assay, CC50 24 h / IC50. The procedure: Coxsackievirus B3 (CVB3, strain Nancy) was obtained from the collection of viruses of the Pasteur Institute (St. Petersburg, Russia). The permissive cell line Vero (ATCC #CCL-81) was used in the study. Infectious titers (in a 50%-tissue culture infection dose, TCID50) were determined in Vero cells for CVB3 by endpoint dilution assay using the following procedure. Permissive cells were seeded into 96-wells plates in Eagles minimal essential medium (MEM) supplemented with 5% fetal bovine serum (FBS). After 24 h, the medium was aspirated, the wells were washed with saline, fresh MEM without FBS was added to the wells and the cells were infected with serial tenfold dilutions of virus stocks (100 µL per well, 4 wells for each dilution). The plates were incubated at +37 °C in 5% CO2 and observed daily for cytopathic effect (CPE). After 72 h the viral titer was calculated in TCID50 using the method of Spearmen-Carber.
The antiviral activity of the compounds was evaluated using viral yield reduction assay. The respective permissive cell line Vero was seeded in MEM supplemented with 5% FBS in 24-well plates. When the cell confluence reached 100%, the compounds tested were dissolved in DMSO, and a series of three-fold dilutions of each compound in MEM without FBS was added to the cells, and incubated at 37 °C in 5% CO2. After 1 h, the media were discarded; equal volumes of fresh serial dilutions of each compound and viral suspension in MEM without FBS at […] were added. In control wells, only MEM without FBS was added. No compounds were added in the virus control wells. The plates were incubated at 4 °C for 1 h. The unbound virus was then washed away and, again, three-fold dilutions of each compound (the final concentration 50–0.6 µg/mL) in MEM without FBS were added to the wells. After 24 h of incubation at 37 °C in 5% CO2, the infectious titer of viral progeny (in TCID50) for each compound concentration, cell control, and virus control wells were determined in permissive cell lines by endpoint dilution assay as described above.
The titer of virus progeny was plotted against log concentration of the compounds tested to generate the dose–response curve. The 50% inhibition concentration (IC50) of each compound tested (i.e., the compound concentration that decreases the infectious viral progeny titer twice, as compared to the control wells) was calculated using a four-parameter logistic nonlinear regression model (GraphPad Prism 6.01).

The subject of a further series is Vero cells. Kind of series: Cytotoxicity assay (MTT) in Vero cells. The format is cell-based. The settings on record: incubation with the compound only. The procedure:
as §1, §2

Data on 13 compounds can be found in article PMC9694965, “Design of 4-Substituted Sulfonamidobenzoic Acid Derivatives Targeting Coxsackievirus B3” (Life, 2022).

Some results are limits rather than exact numbers.

As for `O=C(O)c1ccc(NS(=O)(=O)c2ccc(N3C(=O)c4cccc5cccc(c45)C3=O)cc2)cc1` [Compound 7e, 4-(4-(1,3-Dioxo-1H-benzo[de]isoquinolin-2(3H)-yl)phenylsulfonamido)benzoic acid], the melting point – broadly, the temperature of the solid-liquid transition – was in the range of 284 to 286 °C. Besides, in the series on CVB3 Nancy [1], the EC50 is over 635 µM and the “SI (selectivity index, ratio CC50/IC50)” value was under 1. It took 531 ± 48.4 µM to reach half-maximal cytotoxicity in series [2] (CC50 at 72 h).
On to `NS(=O)(=O)c1ccc(NS(=O)(=O)c2ccc(N3C(=O)c4ccccc4C3=O)cc2)cc1` [Compound 2e, 4-(1,3-Dioxoisoindolin-2-yl)-N-(4-sulfamoylphenyl)benzenesulfonamide], for which the melting point is 261 to 263 °C. For the same compound, in the series on CVB3 Nancy [1], the EC50 is over 437 µM and the “SI (selectivity index, ratio CC50/IC50)” value is under 1. Further, the midpoint of cytotoxicity in series [2], the CC50 at 72 h, lay at 437 ± 35.1 µM.
In turn, `NC(=O)c1ccc(NS(=O)(=O)c2ccc(N3C(=O)c4ccccc4C3=O)cc2)cc1` [Compound 2c, 4-(4-(1,3-Dioxoisoindolin-2-yl)phenylsulfonamido)benzamide] displayed a melting point of 240 to 242 °C. Moreover, in the series with CVB3 Nancy [1], the EC50 is over 475 µM and the “SI (selectivity index, ratio CC50/IC50)” value is under 1. In series [2], the half-maximal cytotoxic concentration (CC50) (commonly the concentration giving 50% cytotoxicity) at 72 h came to 472 ± 38.2 µM.
As for `O=C(O)c1ccc(NS(=O)(=O)c2ccc(N3C(=O)CCC3=O)cc2)cc1` [Compound 7a, 4-(4-(2,5-Dioxopyrrolidin-1-yl)phenylsulfonamido)benzoic acid], the melting point was 243 to 245 °C (dec.). Further, in the series with CVB3 Nancy [1], the EC50 was under 9.88 µM and the “SI (selectivity index, ratio CC50/IC50)” value is over 34.8. Also, the “Temperature to which infectivity of CVB3 was preserved” value in the series on CVB3 Nancy [3] (concentrations greatly exceeding IC50) was determined as 52.4 °C. In addition, the “Effect on heat inactivation of CVB3 (capsid stabilization)” value in the series with CVB3 Nancy [3] (versus virus control) is “heat inactivation of CVB3 changed to higher temperatures”. Also, in series [2], the CC50 at 24 h is over 1340 µM and the 50% cytotoxic concentration (CC50) at 72 h stood at 345 ± 32.2 µM. Besides, in series [4], the IC50 was 4.22 ± 0.35 µM and the “SI (selectivity index, ratio CC50/IC50)” value is recorded as over 316.
As to `CCOC(=O)c1ccc(NS(=O)(=O)c2ccc(NC(=O)c3ccccc3C(=O)O)cc2)cc1` [Compound 3, 2-((4-(N-(4-(Ethoxycarbonyl)phenyl)sulfamoyl)phenyl)carbamoyl)benzoic acid], in the series with CVB3 Nancy [1], the EC50 is over 427 µM and the “SI (selectivity index, ratio CC50/IC50)” value was over 1. Besides, the CC50 at 72 h in series [2] is over 640 µM.
As to `CC(=O)Nc1ccc(NS(=O)(=O)c2ccc(N3C(=O)c4ccccc4C3=O)cc2)cc1` [Compound 2f], the melting point was 220 to 222 °C. Further, in the series with CVB3 Nancy [1], the EC50 was over 689 µM and the “SI (selectivity index, ratio CC50/IC50)” value is under 1. Moreover, the midpoint of cytotoxicity in series [2], the CC50 at 72 h, lay at 181 ± 19.2 µM.
For `O=C(O)C1CCN(S(=O)(=O)c2ccc(N3C(=O)c4ccccc4C3=O)cc2)CC1` [Compound 2g, 1-((4-(1,3-Dioxoisoindolin-2-yl)phenyl)sulfonyl)piperidine-4-carboxylic acid], the melting point was in the range of 207 to 210 °C. In the series on CVB3 Nancy [1], the EC50 worked out at 12.3 ± 2.07 µM and the “SI (selectivity index, ratio CC50/IC50)” value was over 18.5. The compound further gave a CC50 at 72 h in series [2] of over 228 µM.
With `O=C(O)CCCNS(=O)(=O)c1ccc(N2C(=O)c3ccccc3C2=O)cc1` [Compound 2i, 4-(4-(1,3-Dioxoisoindolin-2-yl)phenylsulfonamido)butanoic acid], in the series with CVB3 Nancy [1], the EC50 is under 28.6 µM and the “SI (selectivity index, ratio CC50/IC50)” value was over 10. In series [2], this compound returned a CC50 at 24 h of 1260 ± 110 µM and a CC50 at 72 h of 283 ± 31.1 µM. In addition, in series [4], the IC50 worked out at 37.9 ± 1.08 µM and the “SI (selectivity index, ratio CC50/IC50)” value was 33.
Compound `N#Cc1ccc(NS(=O)(=O)c2ccc(N3C(=O)c4ccccc4C3=O)cc2)cc1` [Compound 2d, N-(4-Cyanophenyl)-4-(1,3-dioxoisoindolin-2-yl)benzenesulfonamide] gave a melting point of 224 to 226 °C. Further, in the series on CVB3 Nancy [1], the EC50 was found to be 744 ± 67.3 µM and the “SI (selectivity index, ratio CC50/IC50)” value is reported as under 1. In series [2], the CC50 at 72 h was found to be 625 ± 57.5 µM.
Take `NC(=O)C1CCN(S(=O)(=O)c2ccc(N3C(=O)c4ccccc4C3=O)cc2)CC1` [Compound 2h, 1-((4-(1,3-Dioxoisoindolin-2-yl)phenyl)sulfonyl)piperidine-4-carboxamide]: the melting point was in the range of 217 to 220 °C. In the series with CVB3 Nancy [1], the EC50 is over 726 µM and the “SI (selectivity index, ratio CC50/IC50)” value is recorded as over 1. In addition, the CC50 at 72 h in series [2] was over 726 µM. For the same compound, the CC50 result in the series on Vero cells is listed as “exceeded the maximum concentration used in the assay”.
`O=C(O)c1ccc(NS(=O)(=O)c2ccc(N3C(=O)C4CC=CCC4C3=O)cc2)cc1` (stereo not drawn) [Compound 7b, 4-(4-(1,3-Dioxo-3a,4,7,7a-tetrahydro-1H-isoindol-2(3H)-yl)phenylsulfonamido)benzoic acid] gave a melting point of 250 to 252 °C. Further, in the series on CVB3 Nancy [1], the EC50 was under 8.67 µM and the “SI (selectivity index, ratio CC50/IC50)” value is over 54.6. Besides, in series [2], the CC50 at 24 h worked out at 933 ± 75.1 µM and the 50% cytotoxic concentration (CC50) at 72 h was found to be 474 ± 38.5 µM. Moreover, the IC50 in series [4] was 11.1 ± 0.16 µM.
Regarding `CCOC(=O)c1ccc(NS(=O)(=O)c2ccc(N3C(=O)c4ccccc4C3=O)cc2)cc1` [Compound 2b, Ethyl 4-(4-(1,3-dioxoisoindolin-2-yl)phenylsulfonamido)benzoate], in the series on CVB3 Nancy [1], the EC50 was over 444 µM and the “SI (selectivity index, ratio CC50/IC50)” value was under 1. Further, in series [2], the CC50 at 72 h was found to be 40 ± 4.12 µM.
`O=C(O)c1ccc(NS(=O)(=O)c2ccc(N3C(=O)C4C5CCC(C5)C4C3=O)cc2)cc1` (stereo not drawn) [Compound 7d, 4-(4-(1,3-Dioxohexahydro-1H-4,7-methanoisoindol-2(3H)-yl)phenylsulfonamido)benzoic acid] showed a melting point of 265 to 267 °C. Moreover, in the series with CVB3 Nancy [1], the EC50 was under 8.39 µM and the “SI (selectivity index, ratio CC50/IC50)” value is listed as over 81.1. In series [2], the CC50 at 24 h was over 1140 µM and half-maximal cytotoxicity (CC50 at 72 h) was put at 681 ± 54.8 µM. For the same compound, in series [4], the IC50 came out at 19.6 ± 0.49 µM and the “SI (selectivity index, ratio CC50/IC50)” value is over 58.
